Assay results published in paper PMC10704437, “Sterol-activated amyloid beta fibril formation” (The Journal of Biological Chemistry, 2023).

Key:
Aβ42 monomer = molecular target: T1, Aβ42 monomer (Homo sapiens, UniProt P05067); assay: Sterol binding to Aβ42, equilibrium DHE fluorescence titrations; conditions: direct Aβ42 titration of DHE fluorescence; single-binding-site fit; K2PO4 50 mM, pH 7.4, 25 °C; read-out: Kd
T1 construct: Small red spheres mark the Aβ42 peptide C-terminal residue, A42; purchased Sigma-Aldrich Corp
Description: CH ([27]) and CS ([28]) increase the rate of Aβ aggregation and CH is thought to stabilize fibrils ([29]); yet, the affinities of CH and its metabolites for the Aβ peptide monomer have not been determined. Here, CH and CS affinities for the Aβ42 monomer are established using dehydroergosterol (DHE)—a fluorescent CH analog ([30]) used as a competitive probe to determine CH and CS affinities. Aβ42 monomers were prepared as previously described ([31]) (see Methods). […] Under this condition, Aβ42 essentially quantitatively binds DHE until its concentration exceeds that of DHE, which results in a breakpoint in the titration curve that yields the stoichiometry. The arrow seen descending from the breakpoint indicates a stoichiometry of 1:1, which agrees well with the ∼1:1 CH-metabolite:Aβ stoichiometry estimated from analysis of senile plaques micro-dissected from AD-patient brain tissue ([15]).
Figure 1 Sterol binding to Aβ42at equilibrium.A, DHE affinity for monomeric Aβ4_2. […] Binding was detected via the binding-induced 4.4 (±0.2)-fold increase in DHE fluorescence (λex = 325 nm, λem= 375 nm). Fluorescence intensity, I, is plotted relative to the intensity at zero titrant, I0. Titrations were performed independently in triplicate and the line passing through the data is the least-squares fit to a single-binding-site model. B, Aβ42:DHE stoichiometry. […] C. DHE fluorescence (λex = 325 nm, λem = 375 nm) is plotted versus [Aβ42]/[DHE]. The line descending from the titration breakpoint indicates a stoichiometry of 1:1. C and D, CH and CS affinities. Affinities were determined by competitive binding versus DHE. […] C, was titrated with CH (5.0–500 nM, 0.05–5 × Kd) or CS (5.0–500 nM, 0.15–[…] × Kd). Binding was monitored via the decrease in DHE fluorescence (λex = 325, λem = 375) caused by DHE displacement from Aβ42. Controls ensured that <2.0% of Aβ42 oligomerized during the measurement. Titrations were performed in triplicate and averaged. The solid lines through the data represent least-squares fits to a competitive single-binding-site model. C and D, insets highlight the behavior of the titration over ligand concentrations that span their reported CMCs (indicated by arrows). […]
DHE/Aβ42 binding interactions were monitored via the binding-induced 4.4-fold change in DHE fluorescence (λex = 325 nm, λem= 375 nm). […]
The affinities of CH and CS for Aβ42 were determined in competitive binding studies versus DHE. Binding was detected via the fluorescence decrease (λex= 325 nm, λem = 375 nm) caused by DHE displacement. […] Imax = (fraction DHE-bound to peptide at zero competitive ligands)/4.4 — the fold fluorescence change associated with DHE dissociation, see Figure 1A.

Aβ42 = molecular target: T2, Aβ42 (Homo sapiens, UniProt P05067); assay: Sterol binding to Aβ42, pre-steady-state stopped-flow fluorescence
T2 construct: Small red spheres mark the Aβ42 peptide C-terminal residue, A42; purchased Sigma-Aldrich Corp
Description: To establish the rates at which Aβ42•ligand complexes form and dissociate, the rate constants governing the binding reactions were determined. DHE binding was monitored in real time using a stopped-flow fluorimeter via binding-induced changes in DHE fluorescence. The reactions are pseudo first order in [ligand] and kobs was obtained by least-squares fitting progress curves to a single-exponential equation ([44], [45]). kobs values were determined (in triplicate) at a series of Aβ42 concentrations and the averaged values are plotted versus [Aβ42] in Figure 2B. kon and koff are given by the slope and intercept of the kobs-versus-[Aβ42] plot obtained by linear least-square fitting ([44], [45]). […] The rate constants are compiled in Table 1.
Figure 2 Sterol binding to Aβ42—pre-steady state studies.A, DHE binding. Reactions were monitored via binding induced changes in DHE fluorescence using a stopped-flow fluorimeter (λex = 325, λem > 400 nm). Fluorescence intensity, I, is reported relative to the intensity in the absence of ligand, Io. […] C was rapidly mixed (1:1, v/v) with a solution identical except that Aβ42 was replaced by DHE (40 nM, 2.7 × Kd). The bindingreaction curve shown is the average of five independent progress curves. The averaged curve was a least-squares fit to a single-exponential equation and the resulting best fit (indicated by the red line) yielded kobs. B, DHE kon and koff. kobs values obtained as in Panel A were determined in triplicate at varying Aβ42 concentrations and the averaged values are shown plotted versus [Aβ42]. kon and koff are given by the slope and intercept of a linear least-squares fit of the kobsversus [Aβ42] plot. C and D, CH and CS displacement reactions.
Pre-steady-state binding of sterols to Aβ42 was monitored via the binding-induced change in DHE fluorescence (λex = 325, λem > 400 nm) using an Applied Photophysics SX20 stopped-flow fluorimeter.
Three progress curves (each an average of five independently obtained curves) were collected at five separate Aꞵ42 concentrations. The observed rate constant (kobs) at a given [Aβ42] was obtained by fitting the average of the three curves to a single-exponential equation using Pro-K software ([75]). kon and koff were obtained from the slopes and intercepts predicted by linear least-squares analysis of kobs versus [Aβ42] plots.
C. […] Progress curves were determined in triplicate and koff was obtained by least-squares fitting the averaged curves to a single-exponential equation using Pro-K.

T2 sequence (P05067 672-713 limits assumed): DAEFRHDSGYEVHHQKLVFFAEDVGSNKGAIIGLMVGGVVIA
T1 sequence (P05067 672-713 limits assumed): as above

CC(C)[C@@H](C)/C=C/[C@@H](C)[C@H]1CC[C@H]2C3=CC=C4C[C@@H](O)CC[C@]4(C)C3=CC[C@]12C [DHE, dehydroergosterol, reference compound]
Kd (Aβ42 monomer): 16 nM
koff (Aβ42; intercept of kobs versus [Aβ42] plot, stopped-flow, pH 7.4, 25 °C): 1 s⁻¹
Kd (Aβ42; ratio of rate constants, read-out: koff/kon): 17 nM
kon (Aβ42; slope of kobs versus [Aβ42] plot, stopped-flow, pH 7.4, 25 °C): 6e+07 M⁻¹ s⁻¹
